Results: patent US10336768B2, “Pyrimidine compounds and methods using the same” (Yuma Therapeutics, Inc., priority 2014, dated 2019)
Where “and” joins values, the source holds several entries; their conditions need not be identical. Equal values may be shown once.

What was measured:
Hsp70 = test: Hsp90 cell based functional assay (Western blot for Hsp70, Hsp90); conditions: for Hsp 70 agonist activity: concentration at which Hsp70 is increased >2-fold: fold noted in cell: >2-fold; for Hsp 70 agonist activity: EC50 at which Hsp70 is increased two-fold: cells treated 24 h, Western blot; for EC50: read-out: Hsp 70 agonist activity; for Hsp 70 agonist activity, result in words: alternative result printed in the same cell
Protocol: Cells were treated with compounds of the invention for 24 h and then lysed in a buffer containing NP-40, orthovanadate, and protease inhibitors. Western blots were performed with antibodies specific to Hsp70, Hsp90, or actin (as control).

His-tagged-Hsp90 = system: T1, His-tagged-Hsp90; test: Hsp90 biochemical assay (AlphaLISA); assay type: binding; conditions: IC50 class; AlphaLISA (primary assay); read-out: Hsp90 inhibitory activity
T1 construct: fused on or other part: His tag (captured on Ni2+-coated beads)
Protocol: This assay employs biotinylated geldanamycin, His-tagged-Hsp90, and Ni^+2 coated beads. This assay is homogenous and miniaturized to 384-well plates. Measurement of binding activity was performed on an Envision reader. […] This assay is the primary assay for evaluating compounds of the invention.

[1] = target: truncated alpha-Hsp90 protein (Homo sapiens, UniProt P07900); test: Hsp90 biochemical assay (fluorescence polarization); assay type: binding; conditions: footnotes (1)-(9) of Table 3, read-out: Hsp90 FP assay result
Protocol: Hsp90 inhibitory activity of the compounds of the invention was assessed using a fluorescence polarization (FP) assay using FITC-labeled geldanamycin and truncated alpha-Hsp90 protein. Measurement of binding activity was performed on BMG CLARIOstar® reader (BMG Labtech, Ortenberg, Germany).

tau = conditions: Corcoran et al., 2010; cited from earlier work

SMILES	IC50 (His-tagged-Hsp90) [nM]	Hsp 70 agonist activity: EC50 at which Hsp70 is increased two-fold (Hsp70) [µM]	IC50 [1]	further results
Cc1cc(-c2c(Cl)cc(Cl)c3c2CCO3)nc(N)n1 [compound 5, 4-(5,7-Dichloro-2,3-dihydrobenzofuran-4-yl)-6-methylpyrimidin-2-amine]	< 1000	–	–	Hsp 70 agonist activity: concentration at which Hsp70 is increased >2-fold (Hsp70): >2 fold at 0.4-1.0 μM
COc1nc(N)nc(-c2cc(OC)c(Cl)cc2Cl)n1 [compound 36]	< 1000	>10	–	–
CCn1ccc2nc(N)nc(-c3c(Cl)cc(Cl)c4c3CCO4)c21 [compound 22, 4-(5,7-dichloro-2,3-dihydrobenzofuran-4-yl)-5-ethyl-5H-pyrrolo[3,2-d]pyrimidin-2-amine]	4000 to 10000	–	–	EC50 (Hsp70): > 10 µM
NC(=O)c1cc2c(-c3c(Cl)cc(Cl)c4c3CCO4)nc(N)nc2s1 [compound 29]	< 1000	0.4	–	–
CCNC(=O)c1cc2c(-c3c(Cl)cc(Cl)c4c3CCO4)nc(N)nc2s1 [compound 24, 2-amino-4-(5,7-dichloro-2,3-dihydrobenzofuran-4-yl)-N-ethylthieno[2,3-d]pyrimidine-6-carboxamide]	< 1000	0.4	–	–
CCc1cc(-c2c(Cl)cc(Cl)c3c2CCO3)nc(N)n1 [compound 6, 4-(5,7-dichloro-2,3-dihydrobenzofuran-4-yl)-6-ethylpyrimidin-2-amine]	< 1000	≥10	–	–
COc1cc(-c2nc(N)nc(C)c2C)c(Cl)cc1Cl [compound 9, 4-(2,4-Dichloro-5-methoxyphenyl)-5,6-dimethylpyrimidin-2-amine]	< 1000	–	1 µM and 1.4 µM	Hsp 70 agonist activity: concentration at which Hsp70 is increased 1.5-fold (Hsp70; fold noted in cell: 1.5-fold): 1.5-fold at 1 μM
CC(C)c1cc(-c2c(Cl)cc(Cl)c3c2CCO3)nc(N)n1 [compound 7, 4-(5,7-dichloro-2,3-dihydrobenzofuran-4-yl)-6-isopropylpyrimidin-2-amine]	< 1000	–	> 10 µM	EC50 (Hsp70): > 10 µM
CN(C)CCOc1cc(-c2nc(N)nc3cc[nH]c23)c(Cl)cc1Cl [compound 27]	1000 to 4000	10	–	–
CCOC(=O)c1cc2c(-c3c(Cl)cc(Cl)c4c3CCO4)nc(N)nc2s1 [compound 23, Ethyl-2-amino-4-(5,7-dichloro-2,3-dihydrobenzofuran-4-yl)thieno[2,3-d]pyrimidine-6-carboxylate]	4000 to 10000	3.3	11.1 µM	–
O=[Se](=O)(O)O [Sodium selenate]	–	–	–	efficacy in TMHT tau model (tau): effective in the TMHT tau model
COc1cc(-c2c(Cl)cc(Cl)c3c2CCO3)nc(N)n1 [compound 8, 4-(5,7-dichloro-2,3-dihydrobenzofuran-4-yl)-6-methoxypyrimidin-2-amine]	< 1000	–	5.5 µM and 6.2 µM	EC50 (Hsp70): > 10 µM
Cn1ccc2nc(N)nc(-c3c(Cl)cc(Cl)c4c3CCO4)c21 [compound 21, 4-(5,7-dichloro-2,3-dihydrobenzofuran-4-yl)-5-methyl-5H-pyrrolo[3,2-d]pyrimidin-2-amine]	1000 to 4000	–	–	EC50 (Hsp70): > 10 µM
COc1cc(-c2nc(N)nc3cc[nH]c23)c(Cl)cc1F [compound 25]	4000 to 10000	–	12.1 µM and 19.3 µM	Hsp 70 agonist activity, result in words (Hsp70): no observable effect; Hsp 70 agonist activity: fold increase of Hsp70 (Hsp70; concentration not given, alternative result: no observable effect): 1.5 fold
COc1cc(-c2nc(N)nc3ccn(C)c23)c(Cl)cc1F [compound 26]	1000 to 4000	3.3	8.5 µM and 11.2 µM	Hsp 70 agonist activity, result in words (Hsp70): no observable effect
COc1cc(-c2nc(N)nc3c2CCC3)c(Cl)cc1Cl [compound 12, 4-(2,4-Dichloro-5-methoxyphenyl)-6,7-dihydro-5H-cyclopenta[d]pyrimidin-2-amine]	< 1000	–	1.7 µM	Hsp 70 agonist activity: concentration at which Hsp70 is increased >2-fold (Hsp70): >2-fold at ≥10 μM
Nc1nc2c(c(-c3c(Cl)cc(Cl)c4c3CCO4)n1)CCC2 [compound 13, 4-(5,7-Dichloro-2,3-dihydrobenzofuran-4-yl)-6,7-dihydro-5H-cyclopenta[d]pyrimidin-2-amine]	< 1000	–	1.8 µM	EC50 (Hsp70): > 10 µM
COc1cc(-c2cc(Cl)nc(N)n2)c(Cl)cc1Cl [compound 39]	< 1000	0.4	–	–
CN(C)CCOc1cc(-c2nc(N)nc3c2CCC3)c(Cl)cc1Cl [compound 14, 4-(2,4-dichloro-5-(2-(dimethylamino)ethoxy)phenyl)-6,7-dihydro-5H-cyclopenta[d]pyrimidin-2-amine]	< 1000	–	–	Hsp 70 agonist activity: concentration at which Hsp70 is increased >2-fold (Hsp70): >2-fold at 10 μM
Cc1nc(N)nc(-c2c(Cl)cc(Cl)c3c2CCO3)c1C [compound 10, 4-(5,7-Dichloro-2,3-dihydrobenzofuran-4-yl)-5,6-dimethylpyrimidin-2-amine]	< 1000	–	2.3 µM and 2.4 µM	Hsp 70 agonist activity: concentration at which Hsp70 is increased >2-fold (Hsp70): >2-fold at 0.4 μM
COc1cc(-c2nc(N)nc3cc[nH]c23)c(Cl)cc1Cl [compound 19, 4-(2,4-Dichloro-5-methoxyphenyl)-5H-pyrrolo[3,2-d]pyrimidin-2-amine]	< 1000	–	–	Hsp 70 agonist activity: concentration at which Hsp70 is increased >2-fold (Hsp70): >2-fold at 0.4-1 μM
